Test results taken from patent US11918666B2, “Topical formulations comprising strontium and methylsulfonylmethane (MSM) and methods of treatment” (NOON AESTHETICS M.R LTD., priority 2018, dated 2024).
Read-outs that look alike come from different tables or passages of the source.

Legend:
tyrosinase = tyrosinase (Homo sapiens, UniProt P14679); conditions: higher than beta-arbutin; cited from earlier work
skin = conditions: rabbits

tyrosinase, sequence (P14679 19-529): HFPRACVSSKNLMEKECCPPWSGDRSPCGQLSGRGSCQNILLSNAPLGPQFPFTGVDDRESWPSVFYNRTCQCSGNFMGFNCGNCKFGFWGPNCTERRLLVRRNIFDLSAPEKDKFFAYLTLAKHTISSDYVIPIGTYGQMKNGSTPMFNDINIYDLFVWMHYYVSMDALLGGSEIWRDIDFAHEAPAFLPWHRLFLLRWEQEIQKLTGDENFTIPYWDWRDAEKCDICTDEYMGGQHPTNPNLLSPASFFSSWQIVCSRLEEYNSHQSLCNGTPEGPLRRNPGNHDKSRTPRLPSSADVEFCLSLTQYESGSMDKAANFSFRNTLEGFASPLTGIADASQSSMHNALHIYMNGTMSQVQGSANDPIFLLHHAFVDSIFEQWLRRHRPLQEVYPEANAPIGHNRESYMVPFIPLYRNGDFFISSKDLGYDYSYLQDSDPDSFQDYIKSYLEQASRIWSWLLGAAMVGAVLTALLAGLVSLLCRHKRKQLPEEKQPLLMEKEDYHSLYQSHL

Molecule: alpha-arbutin [alpha arbutin]
- stability and efficiency relative to beta-arbutin (tyrosinase): 50 times

Molecule: O=C(O)CO [glycolic acid]
- skin irritant effect (skin; glycolic acid applied alone at 10% w/w): mild skin irritant effect
- skin irritant effect (skin; glycolic acid applied alone at 30% or 40% w/w): moderate skin irritant
